Values after ≈ are worked out from the molar mass of the structure shown.
Details: buffer; pH 7.4; 200.0 µM

| Compound | solubility kinetic [µg/mL] |
| --- | --- |
| COc1ccc(C(C)(C)C)cc1NC(=O)CCNC(=O)c1ccco1 | > 51.7 |
| O=S(=O)(CCSc1ccc(C(F)(F)F)cn1)c1ccccc1 | 4.7 (≈ 13.5 µM) |
| CCCn1c(=O)[nH]c(=O)c2[nH]cnc21 | > 29.1 |
| O=c1[nH]c(=S)n(C2CC2)c(O)c1C=NCc1cccnc1 | > 45.4 |
| O=C(CSc1ccccc1C(=O)O)NC12CC3CC(CC(C3)C1)C2 | > 51.8 |
| CC(C)CNC(=O)C1CCCN(C(=O)NCc2ccccc2)C1 (centres undefined) | > 47.6 |
| Oc1c(Cl)cc(Cl)cc1C=Nc1ccc(N2CCOCC2)cc1 | 8.1 (≈ 23.1 µM) |
| Cn1c(=O)[nH]c(=O)c2c1[nH]c(=S)n2Cc1ccccc1 | > 43.2 |
| CC(=O)Nc1c(-c2ccc3ccccc3c2)nc2ccccn12 | 10.7 (≈ 35.5 µM) |
| Cc1ccc(S(=O)(=O)NC2CCSC2=O)cc1C (centres undefined) | 3.1 (≈ 10.9 µM) |
| COc1ccc(/C=C/C(=O)NC2CCCCC2C)cc1 (centres undefined) | 4 (≈ 14.6 µM) |
| C=CC(C)C(C(=O)c1ccccc1)N(C)C (centres undefined) | 12 (≈ 55.2 µM) |
| CN(C)c1cccc(C(=O)OCC(=O)NC2CCCC2)c1 | 36.6 (≈ 126 µM) |
| CCCC(=O)C1=C(N(C)c2ccccc2)CC(C)(C)CC1=O | 32.5 (≈ 109 µM) |
| O=C(CCCCC(=O)Nc1ccc(F)cc1F)Nc1ccc(F)cc1F | 4.4 (≈ 11.9 µM) |
| COCCn1c(=S)[nH]c2sc3c(c2c1=O)CCC(C)C3 (centres undefined) | 40.4 (≈ 130 µM) |
| Nc1ncnc2c1ncn2C1OC(CO)C(O)C1O (centres undefined) | > 40.1 |
| CC(=O)c1ccc(S(=O)(=O)NCCC(=O)NC2CCN(Cc3ccccc3)CC2)cc1.O=C(O)C(=O)O | > 80 |
| O=C1NCCCN1Cc1ccc(Cl)cc1 | > 33.7 |
| O=C([O-])c1ncc(Cl)c(Cl)c1Cl.[NH4+] | > 36.5 |
| O=C(COC(=O)c1cc(=O)[nH]c(=O)[nH]1)Nc1cccc(Cl)c1 | > 48.6 |

| Compound | solubility kinetic [µg/mL] |
| --- | --- |
| Cc1ccc(N(CC(=O)N2CCCC2)S(C)(=O)=O)cc1C | > 46.6 |
| COc1ccc(Cl)cc1NC(=O)CN(C)C(=O)C1COc2ccccc2O1 (centres undefined) | 43.1 (≈ 110 µM) |
| CC(C)(C)NCC(O)c1cc(Cl)c(N)c(Cl)c1.Cl (centres undefined) | 46.5 |
| O=C(O)CCC(=O)Nc1cccc(-c2nc3ccccc3o2)c1 | > 46.5 |
| Cc1ccc2c(CN3CCN(Cc4ccccc4)CC3)cc(=O)oc2c1 | 49.4 (≈ 142 µM) |
| CN1C/C(=C/c2ccncc2)C(=O)/C(=C/c2ccncc2)C1 | 40.9 (≈ 140 µM) |
| COC(=O)CC1NCCc2cc(OC)c(OC)cc21 (centres undefined) | > 39.8 |
| O=C(O)CN1C(=O)CSC1=S | > 28.7 |
| CCc1noc(C)c1C(=O)Nc1ccc(F)c(F)c1 | 37.7 (≈ 142 µM) |
| O=[N+]([O-])c1cccc(-c2noc(-c3ccco3)n2)c1 | 1.7 (≈ 6.61 µM) |
| Cn1cnnc1SCC(=O)NNC(=O)c1ccc([N+](=O)[O-])cc1 | > 50.4 |
| O=C(Cn1nc(Cl)nc1Cl)c1ccc([N+](=O)[O-])cc1 | > 45.2 |
| O=C(/C=C\c1ccc2c(c1)OCO2)CC1(O)C(=O)Nc2ccccc21 (centres undefined) | 24.6 (≈ 72.9 µM) |
| CCN(C(=O)CSc1nc2scc(-c3ccccc3)c2c(=O)n1C)C1CCS(=O)(=O)C1 (centres undefined) | 3.1 (≈ 6.49 µM) |
| CCCCCNC(=O)c1ccc2c(c1)ncn2-c1ccc(OC)cc1 | 26.9 (≈ 79.7 µM) |
| CCOCCCNC(=O)c1ccc(NC(=O)C2CCCO2)cc1 (centres undefined) | > 48.1 |
| COc1cc(OC)cc(C(=O)NC(C(=O)NCCc2ccccn2)C(C)C)c1 (centres undefined) | > 57.8 |
| Cc1cc(C)c(S(=O)(=O)NCC(=O)NCc2ccco2)c(C)c1 | 44.2 (≈ 131 µM) |
| CCc1nc(N2CCCCC2C(=O)O)c2oc3ccccc3c2n1 (centres undefined) | > 48.8 |
| O=C(O)CSc1nc2sc3c(c2c(=O)n1-c1ccccc1)CCC3 | > 53.8 |
| CN(C)CC(c1ccccc1)c1ccccc1.Cl | 34.3 |

| Compound | solubility kinetic [µg/mL] |
| --- | --- |
| COC(=O)c1sccc1NC(=O)c1ccccc1C(=O)O | 39.8 (≈ 130 µM) |
| CCc1ccccc1NC(=O)CN(C)C(=O)COC(=O)c1cccnc1Cl | > 58.5 |
| CC(=O)c1ccc(OC(=O)CN2C(=O)c3ccccc3C2=O)cc1 | > 48.5 |
| O=C(O)c1cccc(N2C(=O)CSC2=S)c1 | > 38 |
| CCN1CCN(C(=O)/C(=C/c2cccs2)NC(=O)c2ccc(C)c(C)c2)CC1 | 48.5 (≈ 122 µM) |
| O=[N+]([O-])c1cccnc1Oc1ccc(OCc2ccccc2)cc1 | < 0.3 |
| Cc1cccc2cc(C#N)c(NCc3ccccc3)nc12 | 11.4 (≈ 41.7 µM) |
| CCc1noc(C)c1C(=O)N(CCOC)c1c(N)n(CC(C)C)c(=O)[nH]c1=O | 55.6 (≈ 141 µM) |
| O=C(O)COCC(=O)Nc1ccc(OCCc2ccccc2)cc1 | 45.4 (≈ 138 µM) |
| c1csc(-c2nc(N3CCCCC3)no2)c1 | 3.8 (≈ 16.1 µM) |
| COc1ccccc1NC(=O)COC(=O)c1ccccn1 | > 42.9 |
| O=[N+]([O-])c1cccc2ncccc12 | 16.3 (≈ 93.6 µM) |
| N#Cc1ccccc1COC(=O)CCN=C1NS(=O)(=O)c2ccccc21 | 52.4 (≈ 142 µM) |
| O=C(c1ccco1)N1CCC(c2nc3ccccc3[nH]2)CC1 | > 44.3 |
| CC(NC(=O)c1cccs1)C1CCCO1 (centres undefined) | > 33.8 |
| O=C(c1ccccc1)N1CCC2(CC1)NCCc1[nH]cnc12 | 42.7 (≈ 144 µM) |
| CNC(=O)/C(=C\c1ccco1)NC(=O)c1ccco1 | > 39 |
| CSc1ccc(/C=C/C(=O)OCC(=O)N2CCCCCC2)cc1 | 3.8 (≈ 11.4 µM) |
| O=C(Nc1ccccc1)c1ccccc1NC(=O)c1ccccc1[N+](=O)[O-] | 7.5 (≈ 20.8 µM) |
| O=C(COC(=O)c1c(Cl)cccc1Cl)NCC1CCCO1 (centres undefined) | > 49.8 |
| CCc1ccccc1OCC(=O)NCC1COc2ccccc2O1 (centres undefined) | 14.9 (≈ 45.5 µM) |

| Compound | solubility kinetic [µg/mL] |
| --- | --- |
| O=C1CCN(S(=O)(=O)c2ccc(Cl)cc2)CC1 | > 41.1 |
| c1ccc2[nH]c(CCCCc3nc4ccccc4[nH]3)nc2c1 | 43.4 (≈ 149 µM) |
| Cc1ccc(C(=O)C(=O)c2ccc(C)c(N)c2)cc1N | 35 (≈ 130 µM) |
| CCOc1ccc(-c2ncncc2-c2ccc(OC)c(OC)c2)c(O)c1 | 3.6 (≈ 10.2 µM) |
| O=C(O)CNC(=O)C12CC3CC(CC(Cl)(C3)C1)C2 | > 40.8 |
| O=C(Nc1cccc(C(=O)O)c1)/C(=C\c1ccco1)NC(=O)c1ccccc1 | 51 (≈ 136 µM) |
| COc1cc(C)c(C)cc1S(=O)(=O)N1CCCc2ccccc21 | 4.9 (≈ 14.8 µM) |
| CSc1nsc(SCC(=O)Nc2ccc(O)c(C(=O)O)c2)n1 | > 53.6 |
| Cc1cccn2cc(-c3cccc(NC(=O)c4cccs4)c3)nc12 | 5.5 (≈ 16.5 µM) |
| COc1ccc([N+](=O)[O-])cc1NC(=O)Cc1noc2ccccc12 | 0.3 (≈ 0.917 µM) |
| O=C(Nc1ccc(F)cc1)c1cc(Cl)sc1Cl | 1.9 (≈ 6.55 µM) |
| CCCCC(CC)C(=O)Nc1cc(=O)[nH]c2nc3ccccc3n12 (centres undefined) | 1.9 (≈ 5.82 µM) |
| O=C(Cn1c(=O)oc2ccccc21)Nc1ccc(Cl)cc1 | 1.8 (≈ 5.95 µM) |
| CCOc1ccccc1N(CC(=O)N1CCCC1)S(C)(=O)=O | > 49 |
| Cc1ccc(S(=O)(=O)N(C)CC(=O)NNC(=O)CCNS(=O)(=O)c2cccc(C)c2)cc1 | > 72.4 |
| CSc1ccc(/C=N/S(=O)(=O)c2ccccc2)cc1 | > 43.7 |
| c1ccc(-c2nc3cccnc3nc2-c2ccccc2)cc1 | 33.1 (≈ 117 µM) |
| CCCN1CCN(CCNC(=O)Nc2cc(C)ccc2C)CC1 | > 47.8 |
| C=CCn1c(SCC(=O)N2CCOCC2)nc2sc(CC)cc2c1=O | > 56.9 |
| COc1ccc(NC(=O)/C(C#N)=C/c2ccc(-c3ccccc3C(=O)O)o2)cc1 | > 58.3 |
| O=[N+]([O-])c1ccccc1OCCOc1ccccc1[N+](=O)[O-] | < 0.3 |

Reference: PubChem BioAssay AID1996
